US12558428B2, “Heterobifunctional compounds and their use in treating disease” (Halda Therapeutics OpCo, Inc., priority 2024, dated 2026)
Like-named read-outs stand apart in the source and are kept apart here.

Legend:
Assay type in all cases: cell-based
[1] = test system: T-Rex 293 cells having increased expression of estrogen receptor alpha protein; test: Cellular growth inhibition assay, T-Rex 293 cells, (+) doxycycline; details: T-REx-293, 72 h
Outline: (§1)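 Growth of a doxycycline-inducible ERα T-Rex 293 clone, induced or not with 3 ng/mL doxycycline, was followed for 72 h with test compound in hormone-depleted medium. CellTiter-Glo luminescence gave GI50.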

[2] = test system: MCF7 cells (ATCC #HTB-22); test: Cellular growth inhibition assay, MCF7 cells purchased from ATCC; details: Homo sapiens, MCF7, 144 h
Outline: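 GI50 values come from a four-parameter fit of CellTiter-Glo 2.0 luminescence after six days of compound exposure at 37° C. Seeding density depended on the source: 225 cells/well for ECACC MCF7, 1,500 for ATCC. Medium was RPMI 1640 with 10% FBS and 0.2 U/ml insulin.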

[3] = test system: T-Rex 293 cells lacking increased expression of estrogen receptor alpha protein; test: Cellular growth inhibition assay, T-Rex 293 cells, (−) doxycycline; details: T-REx-293, 72 h
Outline: as §1

[4] = Table 7-A, T-Rex 293 cells with doxycycline (increased ERα expression), 72 hours, CellTiter-Glo, read-out: (+) Dox GI50
[5] = Table 8-A, MCF7 cells purchased from ATCC, six days, CellTiter-Glo, read-out: GI50
[6] = Table 7-A, T-Rex 293 cells without doxycycline (lacking increased ERα expression), 72 hours, CellTiter-Glo, read-out: (−) Dox GI50

GI50 [2, 5] [nM] | SMILES | GI50 [1, 4] [nM] | GI50 [3, 6] [nM] | GI50 ([1]; read-out: (+) Dox TRex ERa (GI50)) [nM] | GI50 [2] [nM] | GI50 ([3]; read-out: (−) Dox TRex ERa (GI50)) [nM] | GI50 ([1]; T-Rex 293 cells with doxycycline-induced ERα expression, 72 hours, CellTiter-Glo 2.0, read-out: (+) Dox TRex ERa (GI50)) [nM] | GI50 ([3]; T-Rex 293 cells without doxycycline, 72 hours, CellTiter-Glo 2.0, read-out: (−) Dox TRex ERa (GI50)) [nM]
50 to 500 | Cc1sc2c(c1C)C(c1ccc(N3CCN(CC4CCN(c5ccc(C6=C(c7ccc(Cl)cc7Cl)CCCc7cc(C(=O)O)ccc76)cc5)CC4)CC3)cc1)=N[C@@H](C)c1nnc(C)n1-2 [IV-1] | < 50 | > 2500 |  |  |  |  | 
< 50 | Cc1sc2c(c1C)C(c1ccc(N3CC(CC4(O)CN(CC5CN(c6ccc([C@@H]7c8ccc(O)cc8CC[C@@H]7c7ccccc7)cc6)C5)C4)C3)cc1)=NC(C)c1nnc(C)n1-2 (stereo partly drawn) [III-240] | < 50 | 50 to 500 |  |  |  |  | 
50 to 500 | CC1=C(c2c(F)cc(F)cc2F)[C@@H](c2ccc(OCCN3CCC[C@]4(CCN(c5ccc(C6=N[C@@H](C)c7nnc(C)n7-c7sc(C)c(C)c76)cc5)C4)C3)cc2)Oc2ccc(O)cc21 [V-9] | > 2500 | 500 to 2500 |  |  |  |  | 
50 to 500 | Cc1sc2c(c1C)C(c1ccc(OC3CC4(CCN(c5ccc([C@@H]6c7ccc(O)cc7CC[C@@H]6c6ccccc6)cc5)CC4)C3)cc1)=N[C@@H](C)c1nnc(C)n1-2 [III-90] | 500 to 2500 | > 2500 |  |  |  |  | 
> 2500 | Cc1sc2c(c1C)C(c1ccc(N3CC(CN4CCN(CC5CN(c6ccc([C@H]7c8ccc(O)cc8CC[C@H]7c7ccccc7)cc6)C5)CC4)C3)cc1)=N[C@H](C)c1nnc(C)n1-2 [III-136] | > 2500 | > 2500 |  |  |  |  | 
< 50 | COc1cc(N2CCN(CC3(O)CCN(c4ccc(C5=N[C@@H](C)c6nnc(C)n6-c6sc(C)c(C)c65)c(F)c4)CC3)CC2)ccc1[C@@H]1c2ccc(O)cc2CC[C@@H]1c1cccc(F)c1 (single isomer, unassigned) [III-344] | < 50 | 500 to 2500 |  |  |  |  | 
< 50 | Cc1sc2c(c1C)C(c1ccc(N3CC(CC4(F)CCN(CC5CN(c6ccc([C@@H]7c8ccc(O)cc8CC[C@@H]7c7ccccc7)cc6)C5)CC4)C3)cc1)=N[C@@H](C)c1nnc(C)n1-2 [III-203] | < 50 | 500 to 2500 |  |  |  |  | 
50 to 500 | Cc1sc2c(c1C)C(c1ccc(OCC3CCN(CCOc4ccc([C@@H]5c6ccc(O)cc6CC[C@@H]5c5ccccc5)cc4)CC3)cc1)=N[C@@H](Cc1ncco1)c1nnc(C)n1-2 [III-111] | < 50 | 50 to 500 |  |  |  |  | 
< 50 | Cc1sc2c(c1C)C(c1ccc(N3CCC(O)(CN4CCN(c5cc(F)c([C@@H]6c7ccc(O)cc7CC[C@@H]6c6ccccc6)cc5F)CC4)CC3)cc1)=N[C@@H](Cc1ncco1)c1nnc(C)n1-2 [III-299] | < 50 | 50 to 500 |  |  |  |  | 
50 to 500 | Cc1sc2c(c1C)C(c1ccc(N3CC(C(=O)N4CCC(c5ccc([C@@H]6c7ccc(O)cc7CC[C@@H]6c6ccccc6)cc5)CC4)C3)cc1)=N[C@@H](C)c1nnc(C)n1-2 [III-139] | 500 to 2500 | 500 to 2500 |  |  |  |  | 
< 50 | Cc1sc2c(c1C)C(c1ccc(N3CC4(CC(CN5CCN(c6ccc(C7=C(c8ccccc8)CCCc8cc(O)ccc87)cc6)CC5)C4)C3)cc1)=N[C@@H](C)c1nnc(C)n1-2 [IV-50] | < 50 | 500 to 2500 |  |  |  |  | 
50 to 500 | Cc1sc2c(c1C)C(c1ccc(C3CN(C(=O)C4CCN(CC5CN(c6ccc([C@@H]7c8ccc(O)cc8CC[C@@H]7c7ccccc7)cc6)C5)CC4)C3)cc1)=N[C@@H](C)c1nnc(C)n1-2 [III-172] | < 50 | 50 to 500 |  |  |  |  | 
50 to 500 | CC1=C(c2c(F)cc(F)cc2F)[C@H](c2ccc(OCCN3CC(COCCOc4ccc(C5=N[C@@H](C)c6nnc(C)n6-c6sc(C)c(C)c65)cc4)C3)cc2)Oc2ccc(O)cc21 [I-59] | 50 to 500 | 500 to 2500 |  |  |  |  | 
 | CCN(Cc1ccc(C2CN(CC3(O)CCN(c4ccc(C5=N[C@@H](C)c6nnc(C)n6-c6sc(C)c(C)c65)cc4)CC3)C2)cc1)c1cc(OC)ccc1C1CCc2cc(O)ccc2C1 (stereo partly drawn) [I-8, 4-((3-(4-((ethyl(2-(6-hydroxy-1,2,3,4-tetrahydronaphthalen-2-yl)-5-methoxyphenyl)amino)methyl)phenyl)azetidin-1-yl)methyl)-1-(4-((S)-2,3,6,9-tetramethyl-6H-thieno[3,2-f][1,2,4]triazolo[4,3-a][1,4]diazepin-4-yl)phenyl)piperidin-4-ol] |  |  | 50 to 500 | < 50 | 50 to 500 |  | 
50 to 500 | Cc1sc2c(c1C)C(c1ccc(N3CCC(O)(CN4CCN(c5ccc([C@H]6c7ccc(O)cc7CC[C@H]6c6ccc(F)cc6)cc5Cl)CC4)CC3)cc1)=N[C@@H](C)c1nnc(C)n1-2 [III-301] | 500 to 2500 | 500 to 2500 |  |  |  |  | 
50 to 500 | CC1=C(c2c(F)cc(F)cc2F)C(c2ccc(OCCN3CCCN(c4ccc(C5=N[C@@H](C)c6nnc(C)n6-c6sc(C)c(C)c65)cc4)CC3)cc2)Oc2ccc(O)cc21 (stereo partly drawn) [V-6] | 50 to 500 | 500 to 2500 |  |  |  |  | 
50 to 500 | Cc1sc2c(c1C)C(c1ccc(C3CN(CCN4CC(COc5ccc([C@H]6c7ccc(O)cc7CC[C@H]6c6ccccc6)cc5)C4)C3)cc1)=N[C@@H](C)c1nnc(C)n1-2 [III-96] | 50 to 500 | 50 to 500 |  |  |  |  | 
50 to 500 | Cc1sc2c(c1C)C(c1ccc(CN3CCC4(CC3)CCN(c3ccc([C@@H]5c6ccc(O)cc6CC[C@@H]5c5ccccc5)cc3)CC4)cc1)=N[C@@H](C)c1nnc(C)n1-2 [III-115] | 50 to 500 | 500 to 2500 |  |  |  |  | 
50 to 500 | COc1cc(N2CCN(CC3(O)CCN(c4ccc(C5=N[C@@H](C)c6nnc(C)n6-c6sc(C)c(C)c65)cc4)CC3)CC2)ccc1[C@H]1c2ccc(O)cc2CC[C@H]1c1ccccc1F (single isomer, unassigned) [III-308] | 50 to 500 | 50 to 500 |  |  |  |  | 
50 to 500 | Cc1sc2c(c1C)C(c1ccc(N3CCN(CC4CCN(c5ccc([C@H]6c7ccc(O)cc7CC[C@H]6c6ccccc6)cc5)CC4)CC3)cc1)=N[C@@H](Cc1ncco1)c1nnc(C)n1-2 [III-3, (5S,6R)-6-phenyl-5-(4-(4-((4-(4-((S)-2,3,9-trimethyl-6-(oxazol-2-ylmethyl)-6H-thieno[3,2-f][1,2,4]triazolo[4,3-a][1,4]diazepin-4-yl)phenyl)piperazin-1-yl)methyl)piperidin-1-yl)phenyl)-5,6,7,8-tetrahydronaphthalen-2-ol] | 50 to 500 | 500 to 2500 |  |  |  |  | 
< 50 | Cc1sc2c(c1C)C(c1ccc(C3CN(C(=O)C4CCN(CC5CN(c6ccc([C@@H]7c8ccc(O)cc8CC[C@@H]7c7ccccc7)cc6)C5)CC4)C3)cc1)=N[C@@H](Cc1ncco1)c1nnc(C)n1-2 [III-175] | < 50 | 50 to 500 |  |  |  |  | 
50 to 500 | Cc1sc2c(c1C)C(c1ccc(N3CCC(O)(CN4CCN(c5ccc([C@@H]6c7ccc(O)cc7CC[C@@H]6c6ccc(F)cc6F)cc5)CC4)CC3)cc1)=N[C@@H](C)c1nnc(C)n1-2 [III-182] | < 50 | 500 to 2500 |  |  |  |  | 
50 to 500 | Cc1sc2c(c1C)C(c1ccc(C3CN(C[C@H]4CC[C@H](CN5CC(c6ccc([C@@H]7c8ccc(O)cc8CC[C@@H]7c7ccccc7)cc6)C5)CC4)C3)cc1)=N[C@@H](C)c1nnc(C)n1-2 [III-234] | < 50 | 500 to 2500 |  |  |  |  | 
50 to 500 | Cc1sc2c(c1C)C(c1ccc(N3CCC(CN4CC(COc5ccc([C@H]6c7ccc(O)cc7CC[C@H]6c6ccccc6)cc5)C4)CC3)cc1)=N[C@@H](C)c1nnc(C)n1-2 [III-9] | < 50 | 50 to 500 |  |  |  |  | 
< 50 | Cc1sc2c(c1C)C(c1ccc(OC3CC4(CCN(c5ccc(C(=O)c6c(-c7ccc(O)cc7)sc7cc(O)ccc67)cc5)CC4)C3)cc1)=N[C@@H](Cc1ncco1)c1nnc(C)n1-2 (single isomer, unassigned) [I-26, (6-hydroxy-2-(4-hydroxyphenyl)benzo[b]thiophen-3-yl)(4-(2-(4-(2,3,9-trimethyl-6-(oxazol-2-ylmethyl)-6H-thieno[3,2-f][1,2,4]triazolo[4,3-a][1,4]diazepin-4-yl)phenoxy)-7-azaspiro[3.5]nonan-7-yl)phenyl)methanone] |  |  |  |  |  | < 50 | 50 to 500
50 to 500 | Cc1sc2c(c1C)C(c1ccc(N3CCC(C(=O)N4CC(c5ccc([C@@H]6c7ccc(O)cc7CC[C@@H]6c6ccccc6)cc5)C4)CC3)cc1)=N[C@@H](C)c1nnc(C)n1-2 [III-170] | < 50 | 50 to 500 |  |  |  |  | 
< 50 | Cc1sc2c(c1C)C(c1ccc(N3CCC(O)(CN4CCN(c5ccc(C6=C(c7ccccc7Cl)CCCc7cc(C(=O)O)ccc76)c(F)c5)CC4)CC3)cc1)=N[C@@H](C)c1nnc(C)n1-2 [IV-34] | < 50 | 50 to 500 |  |  |  |  | 
50 to 500 | Cc1sc2c(c1C)C(c1ccc(N3CC(CN4CCC(COc5ccc([C@@H]6c7ccc(O)cc7CC[C@@H]6c6ccccc6)cc5)CC4)C3)cc1)=N[C@@H](C)c1nnc(C)n1-2 [III-106] | < 50 | 500 to 2500 |  |  |  |  | 

SMILES | GI50 [2, 5] [nM] | GI50 [1, 4] [nM] | GI50 [3, 6] [nM] | GI50 ([1]; read-out: (+) Dox TRex ERa (GI50)) [nM] | GI50 [2] [nM] | GI50 ([3]; read-out: (−) Dox TRex ERa (GI50)) [nM] | GI50 ([1]; T-Rex 293 cells with doxycycline-induced ERα expression, 72 hours, CellTiter-Glo 2.0, read-out: (+) Dox TRex ERa (GI50)) [nM] | GI50 ([3]; T-Rex 293 cells without doxycycline, 72 hours, CellTiter-Glo 2.0, read-out: (−) Dox TRex ERa (GI50)) [nM]
Cc1sc2c(c1C)C(c1ccc(N[C@H]3C[C@H]4CC[C@@H](C3)N4CCOc3ccc([C@@H]4c5ccc(O)cc5CC[C@@H]4c4ccccc4)cc3)cc1)=NC(Cc1ncco1)c1nnc(C)n1-2 (stereo partly drawn) [III-59] | 50 to 500 | < 50 | 50 to 500 |  |  |  |  | 
